Results: patent US20260053811A1, “METHODS OF TREATING HYPERTENSION IN OBESE SUBJECTS” (Mineralys Therapeutics, Inc., priority 2022, published 2026)

Tested on: hypertensive subjects
Assay: Seated automated office blood pressure (AOBP) in randomized, placebo-controlled, dose-ranging study
Type: in vivo, human
Set-up: Difference from placebo in change in blood pressure: unit not given here
Protocol: A randomized, double-blinded, placebo-controlled, dose-ranging, multicenter study was conducted to evaluate the effect of orally administered Compound A HBr on blood pressure for the treatment of hypertension in male and female subjects ≥18 years of age.
The study consists of two parts. For enrollment into Part 1 of the study, a subject's value of plasma renin activity (PRA) must be ≤1 ng/mL/h based on morning measurement. If the value of PRA >1 ng/mL/h based on morning measurement, then subjects may be eligible to enter Part 2 of the study.
For Part 1, 163 enrolled subjects ≥18 years of age were randomized into 6 equal treatment groups (1:1:1:1:1:1) to 12.5 mg BID, 25 mg BID, 12.5 mg QD, 50 mg QD, 100 mg QD, or placebo. After a review of interim clinical data, the 2 lowest dose levels (12.5 mg QD and 12.5 mg BID) were stopped for future randomization due to a lack of consistent meaningful reduction of blood pressure, but the patients randomized to that point remained in the study through completion. Thus, after the review of interim clinical data, subjects were randomized into 4 equal treatment groups (1:1:1:1) to 25 mg BID, 50 mg QD, 100 mg QD, or placebo.
For Part 2, 36 enrolled subjects ≥18 years of age were randomized (5:1) to either 100 mg QD Compound A HBr or placebo such that the Compound A HBr treatment group consisted of approximately 30 subjects and the placebo treatment group will consist of approximately 6 subjects.
Subjects orally administered the assigned study drug (Compound A HBr or placebo) according to the assigned dosing regimen for 8 weeks beginning on Study Day 1. All subjects in Part 1 (regardless of dosing group) received BID dosing to preserve the integrity of the blind; active drug is administered as the morning dose for all QD dose groups. Subjects returned to the research facility or were seen by the clinical investigator or approved home health care professional at the end of Study Weeks 1, 2, 3, 4, 5, 6, 7, and 8 (±2 days) for protocol-defined efficacy and safety assessments and procedures, assessment of adverse events (AEs), and confirmation of compliance with study drug usage. Subjects also completed a telephone visit and blood pressure (BP) check at home approximately 3 days post last dose of study drug. Subjects attended up to 14 full clinic visits, including a pre-Screening visit, a Screening/start of Placebo Run-in visit, a second visit during Placebo Run-in, a clinic visit to initiate the ABPM procedure, a Randomization visit, 8 weekly visits during double-blind treatment, and an end-of-study visit scheduled 4 weeks after the last study treatment for final efficacy and safety assessments.
An automated oscillometric sphygmomanometer device was used to measure the subjects' systolic and diastolic blood pressure in office after approximately 5 minutes of rest in the seated position.
The primary endpoint is the change in office-measured (mean of last 2 of 5 unattended measurements using an automated oscillometric sphygmomanometer device after approximately 5 minutes of rest in the seated position) systolic blood pressure (SBP) from baseline to the end of Study Week 8.
Secondary endpoints of this study were: • (a) Change in 24-hour ambulatory blood pressure monitoring (ABPM) parameters (systolic and diastolic) from baseline to the end of Study Week 7. • (b) Change in office-measured SBP from baseline to the end of Study Weeks 1, 2, 3, 4, 5, 6, and 7. • (c) Change in office-measured diastolic blood pressure (DBP) from baseline to the end of Study Weeks 1, 2, 3, 4, 5, 6, 7, and 8. • (d) Proportion of subjects who achieve office-measured BP of ≤130/80 mm Hg by the end of Study Week 8.

[1] = 12.5 mg QD, Week 1, Part 1, FAS
[2] = 12.5 mg QD, Week 2, Part 1, FAS
[3] = 12.5 mg QD, Week 3, Part 1, FAS
[4] = 12.5 mg QD, Week 4, Part 1, FAS
[5] = 12.5 mg QD, Week 5, Part 1, FAS
[6] = 12.5 mg QD, Week 6, Part 1, FAS
[7] = 12.5 mg QD, Week 7, Part 1, FAS
[8] = 12.5 mg QD, Week 8, Part 1, FAS

CC(=O)N[C@H]1CC[C@H](NC(=O)CN2CCN(c3nncc(-c4ccc(C)cc4)n3)CC2)CC1 [Compound A HBr]
Difference from placebo in change in blood pressure (12.5 mg QD, BMI >30): −2.5
Difference from placebo in change in blood pressure (12.5 mg QD, Baseline BPsys Low tertile): −10.7
Difference from placebo in change in blood pressure (12.5 mg QD, Thiazide No): 2.6
Seated AOBP DBP change from baseline (CFB), Mean (SD) [1]: 2.87 (12.31) mmHg
Seated AOBP DBP, Mean (SD) [1]: 85.26 (13.88) mmHg
Seated AOBP SBP change from baseline (CFB), Mean (SD) [1]: −5.65 (13.96) mmHg
Seated AOBP SBP, Mean (SD) [1]: 141.43 (15.98) mmHg
Seated AOBP DBP change from baseline (CFB), Mean (SD) [2]: 0.68 (8.89) mmHg
Seated AOBP DBP, Mean (SD) [2]: 81.23 (9.21) mmHg
Seated AOBP SBP change from baseline (CFB), Mean (SD) [2]: −1.86 (16.36) mmHg
Seated AOBP SBP, Mean (SD) [2]: 143.73 (17.32) mmHg
Seated AOBP DBP change from baseline (CFB), Mean (SD) [3]: −1.20 (9.13) mmHg
Seated AOBP DBP, Mean (SD) [3]: 81.80 (13.73) mmHg
Seated AOBP SBP change from baseline (CFB), Mean (SD) [3]: −4.15 (13.14) mmHg
Seated AOBP SBP, Mean (SD) [3]: 142.80 (18.14) mmHg
LSM Δ with Placebo, seated AOBP DBP (MMRM) [4]: −1.96 mmHg
Modelled (MMRM) LSM (SEM) change from baseline, seated AOBP DBP [4]: −2.50 (1.60) mmHg
Seated AOBP DBP change from baseline (CFB), Mean (SD) [4]: −1.80 (9.84) mmHg
Seated AOBP DBP, Mean (SD) [4]: 81.20 (14.03) mmHg
Seated AOBP SBP change from baseline (CFB), Mean (SD) [4]: −3.95 (15.74) mmHg
Seated AOBP SBP, Mean (SD) [4]: 143.00 (18.03) mmHg
Seated AOBP DBP change from baseline (CFB), Mean (SD) [5]: 0.82 (14.46) mmHg
Seated AOBP DBP, Mean (SD) [5]: 83.74 (14.32) mmHg
Seated AOBP SBP change from baseline (CFB), Mean (SD) [5]: −3.53 (12.49) mmHg
Seated AOBP SBP, Mean (SD) [5]: 144.21 (13.11) mmHg
Seated AOBP DBP change from baseline (CFB), Mean (SD) [6]: −4.17 (10.04) mmHg
Seated AOBP DBP, Mean (SD) [6]: 79.06 (13.07) mmHg
Seated AOBP SBP change from baseline (CFB), Mean (SD) [6]: −8.64 (16.52) mmHg
Seated AOBP DBP change from baseline (CFB), Mean (SD) [7]: −6.11 (12.05) mmHg
Seated AOBP DBP, Mean (SD) [7]: 77.11 (12.74) mmHg
Seated AOBP SBP change from baseline (CFB), Mean (SD) [7]: −11.08 (19.26) mmHg
Seated AOBP SBP, Mean (SD) [7]: 136.56 (19.58) mmHg
LSM Δ from Placebo, change from baseline in seated AOBP SBP (MMRM) [8]: −1.53 mmHg
LSM Δ with Placebo, seated AOBP DBP (MMRM) [8]: −2.12 mmHg
Modelled (MMRM) LSM (SEM) change from baseline, seated AOBP DBP [8]: −3.76 (2.02) mmHg
Modelled (MMRM) LSM (SEM) change from baseline, seated AOBP SBP [8]: −5.63 (3.16) mmHg
Seated AOBP DBP change from baseline (CFB), Mean (SD) [8]: −1.78 (13.33) mmHg
Seated AOBP DBP, Mean (SD) [8]: 81.44 (17.24) mmHg
Seated AOBP SBP change from baseline (CFB), Mean (SD) [8]: −6.86 (19.85) mmHg
Seated AOBP SBP, Mean (SD) [8]: 140.78 (22.01) mmHg
Subjects with seated AOBP SBP/DBP ≤130/80 mmHg: No [8]: 17 (73.9) n (%)
Subjects with seated AOBP SBP/DBP ≤130/80 mmHg: Yes [8]: 6 (26.1) n (%)
Difference from placebo in change in blood pressure (25 mg BID, BMI 25-30): −1.1
Difference from placebo in change in blood pressure (25 mg BID, BMI >30): −9.1
Proportion of subjects with AOBP ≤130/80 mmHg (25 mg BID, Part 1, Week 8): 43.3%
Difference from placebo in change in blood pressure (25 mg BID, Thiazide No): −4.7
